According to patent US20090220648A1, “Nutritional additive for animals” (KEMIRA GROW HOW AB, priority 2005, published 2009):

Assay: Buffering capacity
Type: physicochemical

Row | buffering capacity, mekvH+/kg sample | SMILES
1 | 14850 mekvH+/kg sample | O=C([O-])[O-].[Ca+2] [CaCO3]
2 | 50 mekvH+/kg sample | O=S(=O)([O-])[O-].[Ca+2] [CaSO4]
